Literature values in patent US9795715B2, “Bone tissue engineering by ex vivo stem cells ongrowth into three-dimensional trabecular metal” (Zimmer Trabecular Metal Technology, Inc., priority 2004, dated 2017).

Test system: porcine embryos
Details: 0.5 mg/mL

## hyaluronan
  development of porcine embryos in culture: increase the development of porcine embryos
